# Experimental data: patent US20060004036A1, “Sigma-2 receptor agonists and their use in the treatment of HIV infection” (The United States of America, per Secy. DHHS, NIH, priority 2003, published 2006)
# Experiments:
# HIV = HIV infectivity assay, luciferase activity in CEMX174 cells with SIV LTR-driven luciferase gene; assay type: cell-based; conditions: for inhibition of HIV infection (in words): lymphocytes incubated 24 hours with drug, washed, exposed to HIV for 24 hours, luciferase activity (FIG. 2)
# Description: CEMX174 cells transfected with a luciferase gene driven by the Simian Immunodeficiency Virus (SIV) LTR are used in infectivity assays. Cells are then treated with sigma-2 receptor agonists at various concentrations followed by incubation in the presence or absence (control) of HIV. Luciferase activity quantifies HIV replication.
# This inhibition of HIV infection occurs at doses within the range of concentrations of CB-184 and haldol that produce reductions in membrane sphingomyelin, as shown above in FIG. 1. In these experiments, lymphocytes transfected with a luciferease gene driven by the Simian Immunodeficiency virus (SIV)LTR were incubated for 24 hours in the presence of the indicated dose of sigma-2 receptor agonist. The drugs were then removed, cells were washed and exposed to HIV for 24 hours. Cells were then lysed and luciferase activity quantified. Luciferase activity indicates the level of infectivity of the HIV virions. All of the compounds evaluated with sigma-2 agonist activity inhibited HIV infection at concentrations that were non-toxic to lymphocytes.
# H9 lymphocytes = experiment: Membrane sphingomyelin levels in [3H]palmitic acid-labeled H9 lymphocytes; assay type: cell-based; conditions: H9 cells, 24 hours incubation (FIG. 1)
# Description: Methods: Membrane sphingomyelin is metabolically labeled in H9 lymphocytes by incubating the cells with [^3H] palmitic acid in supplemented RPMI media for 48 h. Labeled media is removed and cells are incubated in the presence or absence of various concentrations of the sigma-2 receptor agonists CB-184 or haldol (haloperidol) for 24 hours. Total lipids are extracted and the dried organic layer is chromatographed on Silica G-60 plates. Sphingomyelin spots are scraped and quantified by liquid scintillation counting.
Compound,inhibition of HIV infection (in words) (HIV),"effect of the antagonist on the ability of CB-184 to inhibit HIV infection of lymphocytes (in words) (HIV; with CB-184 at various doses and different HIV viral titres (FIG. 3, 4, 5))",reduction of control levels of membrane sphingomyelin (H9 lymphocytes; 0.3 μM),reduction of control levels of membrane sphingomyelin (H9 lymphocytes; 1 μM)
"CN(CCc1ccc(Cl)c(Cl)c1)[C@H]1CCCC[C@H]1N1CCCC1 (relative stereo) [BD737, 1S,2R-(+)-cis-N-[2-(3,4-dichlorophenyl)ethyl]-N-methyl-2-(1-pyrrolidinyl)-cyclohexylamine]",dose-dependent inhibition,,,
"c1ccc(CCN2CCCCC2)cc1 [AC-927, N-phenethylpiperidine, reference compound]",,reversed,,
CN1CC[C@]2(c3cccc(O)c3)CC(=O)/C(=C/c3ccccc3)[C@H]1C2 [CB-64D],dose-dependent inhibition,,,
"CN1CC[C@]2(c3cccc(O)c3)CC(=O)/C(=C/c3ccc(Cl)c(Cl)c3)[C@H]1C2 [CB-184, (+)-1R,5R-E-8-(3,4-dichlorobenzylidene)-5-(3-hydroxyphenyl)-2-methylmorphan-7-one]",dose-dependent inhibition,,about 39%,~45%
"O=C(CCCN1CCC(O)(c2ccc(Cl)cc2)CC1)c1ccc(F)cc1 [haldol, haloperidol, reference compound]",dose-dependent inhibition,,,
